How the values were obtained:
Cytochrome P450 2C9 = Cytochrome P450 2C9 (Homo sapiens, UniProt P11712); experiment: Inhibition of CYP2C9 (unknown origin); assay type: ADME
Cytochrome P450 2D6 = Cytochrome P450 2D6 (Homo sapiens, UniProt P10635); experiment: Inhibition of CYP2D6 (unknown origin); assay type: ADME
MDR1 = experiment: Apparent permeability in pig LLC-PK1 cells transfected with MDR1; assay type: ADME, cell-based, Sus scrofa
[1] = molecular target: T1, Nuclear receptor subfamily 1 group I member 2 (Homo sapiens, UniProt O75469); experiment: Activation of PXR (unknown origin) assessed as CYP3A4 induction
T1 sequence (O75469 whole entry): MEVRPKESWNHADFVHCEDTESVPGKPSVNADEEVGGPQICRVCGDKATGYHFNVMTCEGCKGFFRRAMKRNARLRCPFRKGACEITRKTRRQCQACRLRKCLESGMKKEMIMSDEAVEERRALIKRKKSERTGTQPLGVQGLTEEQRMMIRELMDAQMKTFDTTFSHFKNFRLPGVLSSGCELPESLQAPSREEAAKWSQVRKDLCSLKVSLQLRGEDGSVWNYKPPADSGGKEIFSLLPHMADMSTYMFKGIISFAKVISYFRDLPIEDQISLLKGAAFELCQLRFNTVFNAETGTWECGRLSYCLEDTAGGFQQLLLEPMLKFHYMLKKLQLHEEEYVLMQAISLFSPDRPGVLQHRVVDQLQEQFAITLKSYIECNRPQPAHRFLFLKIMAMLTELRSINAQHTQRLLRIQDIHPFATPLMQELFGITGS

[2] = molecular target: Voltage-dependent L-type calcium channel subunit alpha-1C (Homo sapiens, UniProt Q13936); experiment: Inhibition of Cav1.2 (unknown origin)
Sequence of Voltage-dependent L-type calcium channel subunit alpha-1C (Q13936 whole entry): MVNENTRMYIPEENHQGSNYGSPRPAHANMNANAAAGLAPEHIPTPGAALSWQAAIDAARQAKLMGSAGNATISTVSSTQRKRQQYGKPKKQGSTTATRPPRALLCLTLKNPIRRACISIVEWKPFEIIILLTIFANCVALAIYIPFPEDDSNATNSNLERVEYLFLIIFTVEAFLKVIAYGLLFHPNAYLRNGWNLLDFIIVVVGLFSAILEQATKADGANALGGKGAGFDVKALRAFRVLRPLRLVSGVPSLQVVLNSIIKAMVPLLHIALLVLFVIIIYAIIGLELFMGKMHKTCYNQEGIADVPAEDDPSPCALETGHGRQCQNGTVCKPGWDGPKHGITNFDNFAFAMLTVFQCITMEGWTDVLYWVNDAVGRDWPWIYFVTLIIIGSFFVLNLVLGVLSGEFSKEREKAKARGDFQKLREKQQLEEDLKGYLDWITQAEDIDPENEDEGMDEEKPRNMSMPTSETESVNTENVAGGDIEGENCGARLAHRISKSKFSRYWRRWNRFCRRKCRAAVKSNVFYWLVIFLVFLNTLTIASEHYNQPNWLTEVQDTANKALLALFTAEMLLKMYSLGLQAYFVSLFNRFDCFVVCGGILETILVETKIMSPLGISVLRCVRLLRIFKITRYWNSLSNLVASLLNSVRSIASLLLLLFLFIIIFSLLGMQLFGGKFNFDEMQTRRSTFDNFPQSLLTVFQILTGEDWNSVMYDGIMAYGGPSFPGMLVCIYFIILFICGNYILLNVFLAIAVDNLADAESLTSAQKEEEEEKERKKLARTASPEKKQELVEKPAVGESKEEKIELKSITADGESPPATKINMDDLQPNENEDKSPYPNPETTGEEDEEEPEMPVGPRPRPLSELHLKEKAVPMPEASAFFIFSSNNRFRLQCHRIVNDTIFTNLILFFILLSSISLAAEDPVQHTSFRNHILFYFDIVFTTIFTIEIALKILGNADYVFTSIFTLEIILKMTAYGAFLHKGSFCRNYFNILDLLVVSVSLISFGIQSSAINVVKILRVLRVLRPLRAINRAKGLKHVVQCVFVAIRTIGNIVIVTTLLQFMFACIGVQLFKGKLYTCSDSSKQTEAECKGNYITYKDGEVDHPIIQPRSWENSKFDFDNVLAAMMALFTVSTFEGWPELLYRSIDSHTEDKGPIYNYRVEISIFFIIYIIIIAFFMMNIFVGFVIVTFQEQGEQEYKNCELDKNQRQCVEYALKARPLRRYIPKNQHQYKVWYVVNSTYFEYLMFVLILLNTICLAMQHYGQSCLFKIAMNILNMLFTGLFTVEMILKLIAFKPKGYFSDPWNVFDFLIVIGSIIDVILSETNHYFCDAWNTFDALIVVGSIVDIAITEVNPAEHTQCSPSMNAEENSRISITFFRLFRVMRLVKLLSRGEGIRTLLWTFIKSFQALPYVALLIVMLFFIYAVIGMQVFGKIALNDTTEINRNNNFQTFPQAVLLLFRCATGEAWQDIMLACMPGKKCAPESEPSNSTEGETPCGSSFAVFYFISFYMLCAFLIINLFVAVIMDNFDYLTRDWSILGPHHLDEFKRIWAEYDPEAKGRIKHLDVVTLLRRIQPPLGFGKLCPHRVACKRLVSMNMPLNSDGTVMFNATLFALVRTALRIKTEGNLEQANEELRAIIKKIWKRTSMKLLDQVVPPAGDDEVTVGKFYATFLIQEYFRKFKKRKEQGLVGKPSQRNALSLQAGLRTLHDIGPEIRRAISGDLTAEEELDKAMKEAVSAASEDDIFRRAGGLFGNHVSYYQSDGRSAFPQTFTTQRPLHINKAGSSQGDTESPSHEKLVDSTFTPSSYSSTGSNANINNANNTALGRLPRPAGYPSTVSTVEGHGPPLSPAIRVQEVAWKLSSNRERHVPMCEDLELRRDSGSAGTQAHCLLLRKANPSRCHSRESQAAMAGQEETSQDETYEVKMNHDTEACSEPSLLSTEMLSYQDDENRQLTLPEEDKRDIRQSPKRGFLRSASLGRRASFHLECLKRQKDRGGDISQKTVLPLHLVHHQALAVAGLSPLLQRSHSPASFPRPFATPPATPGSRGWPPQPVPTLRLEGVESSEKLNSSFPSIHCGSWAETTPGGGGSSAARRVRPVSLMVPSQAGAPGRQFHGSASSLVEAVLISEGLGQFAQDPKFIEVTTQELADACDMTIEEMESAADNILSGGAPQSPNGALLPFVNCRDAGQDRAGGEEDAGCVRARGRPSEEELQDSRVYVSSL

Cytochrome P450 3A4 = Cytochrome P450 3A4 (Homo sapiens, UniProt P08684); experiment: Inhibition of CYP3A4 (unknown origin); assay type: ADME
Sequence of Cytochrome P450 3A4 (P08684 whole entry): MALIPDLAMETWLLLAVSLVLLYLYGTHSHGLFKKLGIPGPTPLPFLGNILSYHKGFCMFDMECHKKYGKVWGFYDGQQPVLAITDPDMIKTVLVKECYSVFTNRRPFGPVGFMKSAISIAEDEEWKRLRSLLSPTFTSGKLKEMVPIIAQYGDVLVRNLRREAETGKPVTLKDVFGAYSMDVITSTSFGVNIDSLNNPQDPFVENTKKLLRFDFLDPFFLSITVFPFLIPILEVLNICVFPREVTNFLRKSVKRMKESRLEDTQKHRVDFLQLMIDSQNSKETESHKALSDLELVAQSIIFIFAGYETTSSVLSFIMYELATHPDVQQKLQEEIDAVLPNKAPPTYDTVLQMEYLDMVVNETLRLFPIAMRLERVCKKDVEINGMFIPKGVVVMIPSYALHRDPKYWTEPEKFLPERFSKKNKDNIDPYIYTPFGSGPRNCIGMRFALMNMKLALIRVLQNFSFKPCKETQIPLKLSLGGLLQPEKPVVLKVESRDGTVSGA

[3] = molecular target: Voltage-gated inwardly rectifying potassium channel KCNH2 (Homo sapiens, UniProt Q12809); experiment: Displacement of MK-0499 from human ERG
Sequence of Voltage-gated inwardly rectifying potassium channel KCNH2 (Q12809 whole entry): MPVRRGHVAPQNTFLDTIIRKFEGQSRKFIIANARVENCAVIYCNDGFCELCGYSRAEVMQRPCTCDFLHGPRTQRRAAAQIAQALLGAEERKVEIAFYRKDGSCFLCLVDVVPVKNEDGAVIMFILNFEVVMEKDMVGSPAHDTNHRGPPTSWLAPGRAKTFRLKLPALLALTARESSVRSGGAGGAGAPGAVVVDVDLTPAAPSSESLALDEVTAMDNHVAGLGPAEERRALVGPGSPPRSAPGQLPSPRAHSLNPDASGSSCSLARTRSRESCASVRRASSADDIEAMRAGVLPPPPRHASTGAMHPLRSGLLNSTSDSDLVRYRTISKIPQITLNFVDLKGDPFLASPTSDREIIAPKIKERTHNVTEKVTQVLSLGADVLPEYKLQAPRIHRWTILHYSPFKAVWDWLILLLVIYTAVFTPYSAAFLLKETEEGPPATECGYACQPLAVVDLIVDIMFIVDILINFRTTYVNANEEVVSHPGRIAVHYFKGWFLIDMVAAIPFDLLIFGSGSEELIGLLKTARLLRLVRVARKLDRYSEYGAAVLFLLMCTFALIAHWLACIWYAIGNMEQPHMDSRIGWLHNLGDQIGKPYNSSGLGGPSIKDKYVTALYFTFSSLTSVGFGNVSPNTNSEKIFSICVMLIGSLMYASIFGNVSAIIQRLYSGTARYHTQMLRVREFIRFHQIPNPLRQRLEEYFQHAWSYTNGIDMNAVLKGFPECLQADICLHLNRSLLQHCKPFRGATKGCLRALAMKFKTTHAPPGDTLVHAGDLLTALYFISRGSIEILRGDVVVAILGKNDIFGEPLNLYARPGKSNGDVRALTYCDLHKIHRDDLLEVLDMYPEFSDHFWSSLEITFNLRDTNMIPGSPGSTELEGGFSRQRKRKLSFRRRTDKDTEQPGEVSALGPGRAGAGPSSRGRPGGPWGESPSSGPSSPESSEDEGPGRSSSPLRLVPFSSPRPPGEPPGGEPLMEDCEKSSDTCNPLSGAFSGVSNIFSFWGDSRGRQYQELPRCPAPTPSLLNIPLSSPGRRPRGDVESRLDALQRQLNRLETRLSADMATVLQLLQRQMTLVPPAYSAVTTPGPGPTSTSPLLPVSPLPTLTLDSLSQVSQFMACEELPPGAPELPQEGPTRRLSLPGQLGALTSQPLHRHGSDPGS

[4] = molecular target: T2, Beta-hexosaminidase subunit beta (Homo sapiens, UniProt P07686); experiment: Inhibition of human beta hexosaminidase assessed as inhibitory constant using 4-methylumbelliferyl N-acetyl-beta-D-glucosaminide dihydrate as substrate measured every 60 sec for 45 mins by fluorescence spectrophotometry
T2 sequence (P07686 whole entry): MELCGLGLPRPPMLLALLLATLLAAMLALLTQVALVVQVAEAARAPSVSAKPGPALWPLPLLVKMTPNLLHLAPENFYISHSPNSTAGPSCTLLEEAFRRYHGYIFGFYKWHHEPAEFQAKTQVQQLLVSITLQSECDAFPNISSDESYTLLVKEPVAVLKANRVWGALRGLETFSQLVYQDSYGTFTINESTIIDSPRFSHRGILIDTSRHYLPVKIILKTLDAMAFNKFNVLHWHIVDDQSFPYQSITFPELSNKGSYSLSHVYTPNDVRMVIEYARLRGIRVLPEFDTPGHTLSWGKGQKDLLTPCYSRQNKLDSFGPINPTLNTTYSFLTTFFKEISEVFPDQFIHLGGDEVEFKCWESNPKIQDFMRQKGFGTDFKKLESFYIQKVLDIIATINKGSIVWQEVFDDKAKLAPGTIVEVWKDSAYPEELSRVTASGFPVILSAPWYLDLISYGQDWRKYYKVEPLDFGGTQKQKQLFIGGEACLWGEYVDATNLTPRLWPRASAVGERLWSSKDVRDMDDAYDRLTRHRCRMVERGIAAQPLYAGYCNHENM

[5] = molecular target: Sodium channel protein type 5 subunit alpha (Homo sapiens, UniProt Q14524); experiment: Inhibition of Nav1.5 (unknown origin)
[6] = Fraction unbound in human plasma at 2.5 uM by equilibrium dialysis; assay type: ADME, cell-free
[7] = Ratio of drug uptake in rat brain to plasma at 3 mg/kg, po measured after 8 hrs; assay type: ADME, organism-based; settings: read-out: BPR
[8] = AUCN in Wistar Han rat at 3 mg/kg, po; assay type: ADME, organism-based; settings: in vivo
Protein O-GlcNAcase [9] = molecular target: T3, Protein O-GlcNAcase (Homo sapiens, UniProt O60502); experiment: Inhibition of recombinant human OGA
T3 sequence (O60502 whole entry): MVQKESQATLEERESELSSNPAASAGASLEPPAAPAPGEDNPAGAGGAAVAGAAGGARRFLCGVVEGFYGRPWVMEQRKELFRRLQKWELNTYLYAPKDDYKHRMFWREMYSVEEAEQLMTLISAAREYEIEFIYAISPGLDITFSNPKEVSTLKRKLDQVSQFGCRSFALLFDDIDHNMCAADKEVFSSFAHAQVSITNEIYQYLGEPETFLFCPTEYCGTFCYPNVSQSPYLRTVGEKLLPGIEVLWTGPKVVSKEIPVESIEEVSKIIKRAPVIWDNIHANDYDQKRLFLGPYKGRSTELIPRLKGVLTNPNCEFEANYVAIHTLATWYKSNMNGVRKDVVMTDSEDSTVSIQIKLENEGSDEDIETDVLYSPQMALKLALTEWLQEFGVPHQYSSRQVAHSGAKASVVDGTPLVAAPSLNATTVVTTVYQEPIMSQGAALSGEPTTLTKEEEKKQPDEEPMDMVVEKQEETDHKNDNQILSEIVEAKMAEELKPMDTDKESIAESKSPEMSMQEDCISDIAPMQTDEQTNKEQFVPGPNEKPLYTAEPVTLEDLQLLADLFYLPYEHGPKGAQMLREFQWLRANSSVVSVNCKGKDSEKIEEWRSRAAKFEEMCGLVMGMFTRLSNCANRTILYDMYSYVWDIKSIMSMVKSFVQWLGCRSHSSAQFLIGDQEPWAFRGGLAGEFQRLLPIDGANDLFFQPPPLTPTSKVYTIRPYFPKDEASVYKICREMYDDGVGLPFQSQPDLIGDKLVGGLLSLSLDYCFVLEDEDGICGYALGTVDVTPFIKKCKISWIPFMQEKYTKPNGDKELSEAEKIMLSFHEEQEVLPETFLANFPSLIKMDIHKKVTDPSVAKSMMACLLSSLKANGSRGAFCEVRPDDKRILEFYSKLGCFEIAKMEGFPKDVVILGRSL

[10] = Clearance in Wistar Han rat at 2 mg/kg, iv; assay type: ADME, organism-based; settings: in vivo
[11] = Drug uptake in rat brain at 3 mg/kg, po measured after 8 hrs; assay type: ADME, organism-based; settings: in vivo
Protein O-GlcNAcase [12] = molecular target: T4, Protein O-GlcNAcase (Rattus norvegicus, UniProt Q8VIJ5); experiment: Inhibition of OGA in rat PC12 cells assessed as OGlcNAcylated protein level incubated for 24 hrs by ELISA; assay type: cell-based
T4 sequence (Q8VIJ5 whole entry): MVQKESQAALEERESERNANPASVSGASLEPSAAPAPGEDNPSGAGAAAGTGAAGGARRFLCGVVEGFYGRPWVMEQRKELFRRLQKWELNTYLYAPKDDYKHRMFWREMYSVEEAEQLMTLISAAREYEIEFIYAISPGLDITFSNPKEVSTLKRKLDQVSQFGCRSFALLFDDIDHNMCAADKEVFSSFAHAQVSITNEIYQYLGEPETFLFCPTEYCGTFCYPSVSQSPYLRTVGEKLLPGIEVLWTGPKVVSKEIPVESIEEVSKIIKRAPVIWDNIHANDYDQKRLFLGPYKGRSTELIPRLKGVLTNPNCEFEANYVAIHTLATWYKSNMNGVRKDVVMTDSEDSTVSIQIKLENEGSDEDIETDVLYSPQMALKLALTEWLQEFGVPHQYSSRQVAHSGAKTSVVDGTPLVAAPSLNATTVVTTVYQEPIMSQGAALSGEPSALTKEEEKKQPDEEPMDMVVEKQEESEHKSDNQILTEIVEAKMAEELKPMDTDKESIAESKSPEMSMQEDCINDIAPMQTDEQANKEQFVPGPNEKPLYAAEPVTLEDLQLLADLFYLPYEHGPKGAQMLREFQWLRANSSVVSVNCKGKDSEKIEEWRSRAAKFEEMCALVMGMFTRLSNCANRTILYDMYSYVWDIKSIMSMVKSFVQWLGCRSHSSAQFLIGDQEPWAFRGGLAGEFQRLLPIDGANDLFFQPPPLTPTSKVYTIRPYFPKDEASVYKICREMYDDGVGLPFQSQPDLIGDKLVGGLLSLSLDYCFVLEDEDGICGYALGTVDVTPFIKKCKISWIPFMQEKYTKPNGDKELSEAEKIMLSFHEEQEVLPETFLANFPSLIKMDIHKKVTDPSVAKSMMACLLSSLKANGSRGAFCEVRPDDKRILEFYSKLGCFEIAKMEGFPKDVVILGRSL

[13] = Volume of distribution at steady state in Wistar Han rat at 2 mg/kg, iv or 3 mg/kg, po; assay type: ADME, organism-based; settings: in vivo, read-out: Vdss
Rattus norvegicus [14] = experiment: Elevation of O-protein in rat brain at 3 mg/kg, po measured after 8 hrs relative to control; assay type: functional
[15] = Half life in Wistar Han rat at 2 mg/kg, iv; assay type: ADME, organism-based; settings: in vivo
[16] = Fraction unbound in Wistar Han rat plasma at 2.5 uM by equilibrium dialysis; assay type: ADME, cell-free
[17] = Oral bioavailability in Wistar Han rat at 3 mg/kg; assay type: ADME, organism-based; settings: in vivo
[18] = Oral bioavailability in Wistar Han rat at 10 mg/kg; assay type: ADME, organism-based; settings: in vivo
[19] = Volume of distribution at steady state in Wistar Han rat at 2 mg/kg, iv or 10 mg/kg, po; assay type: ADME, organism-based; settings: in vivo, read-out: Vdss
[20] = AUCN in Wistar Han rat at 10 mg/kg, po; assay type: ADME, organism-based; settings: in vivo
[21] = Ratio of drug uptake in rat brain to plasma at 3 mg/kg, po measured after 24 hrs; assay type: ADME, organism-based; settings: read-out: BPR
Rattus norvegicus [22] = experiment: Elevation of O-protein in rat brain at 3 mg/kg, po measured after 24 hrs relative to control; assay type: functional
[23] = Drug uptake in rat brain at 3 mg/kg, po measured after 24 hrs; assay type: ADME, organism-based; settings: in vivo

Sequence of Cytochrome P450 2D6 (P10635 whole entry): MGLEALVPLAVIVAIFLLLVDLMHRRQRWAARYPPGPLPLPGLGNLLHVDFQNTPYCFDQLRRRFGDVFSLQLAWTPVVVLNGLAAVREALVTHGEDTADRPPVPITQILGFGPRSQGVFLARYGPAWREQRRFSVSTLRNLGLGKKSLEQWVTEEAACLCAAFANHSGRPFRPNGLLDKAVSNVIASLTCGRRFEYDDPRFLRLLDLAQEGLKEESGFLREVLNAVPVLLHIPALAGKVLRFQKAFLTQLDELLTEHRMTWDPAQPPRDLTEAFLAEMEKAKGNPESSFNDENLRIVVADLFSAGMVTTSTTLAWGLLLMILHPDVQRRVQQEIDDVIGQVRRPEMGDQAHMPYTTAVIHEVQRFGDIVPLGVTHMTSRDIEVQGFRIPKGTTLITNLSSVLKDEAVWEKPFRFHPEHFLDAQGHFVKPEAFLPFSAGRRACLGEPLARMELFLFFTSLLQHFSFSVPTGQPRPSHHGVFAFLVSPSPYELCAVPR
Sequence of Cytochrome P450 2C9 (P11712 whole entry): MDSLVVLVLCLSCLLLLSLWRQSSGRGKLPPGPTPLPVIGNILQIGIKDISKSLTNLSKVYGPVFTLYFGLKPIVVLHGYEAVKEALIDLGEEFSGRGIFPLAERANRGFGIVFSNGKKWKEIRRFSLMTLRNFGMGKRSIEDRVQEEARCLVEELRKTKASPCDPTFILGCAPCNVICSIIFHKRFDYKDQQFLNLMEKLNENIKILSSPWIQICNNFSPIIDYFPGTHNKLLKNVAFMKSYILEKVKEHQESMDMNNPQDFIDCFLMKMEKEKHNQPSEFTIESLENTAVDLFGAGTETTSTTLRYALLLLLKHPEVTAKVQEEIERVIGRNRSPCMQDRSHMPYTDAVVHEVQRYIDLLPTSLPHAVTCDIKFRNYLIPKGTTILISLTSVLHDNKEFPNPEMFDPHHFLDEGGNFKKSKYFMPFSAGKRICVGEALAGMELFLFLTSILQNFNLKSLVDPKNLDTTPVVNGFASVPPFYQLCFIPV

Row | IC50 (Cytochrome P450 2C9) | IC50 (Cytochrome P450 2D6) | Papp (MDR1) | EC50 [1] | IC50 (Cytochrome P450 3A4) | Ki [4] | fraction unbound at 2.5 µM [6] | Kp at 8 h [7] | AUC/dose [8] | Ki (Protein O-GlcNAcase [9]) | clearance [10] | Drug uptake [11] | EC50 (Protein O-GlcNAcase [12]) | Vd [13] | half-life [15] | fraction unbound at 2.5 µM [16] | SMILES | IC50 [2] | IC50 [3] | IC50 [5] | fold change (FC) (Rattus norvegicus [14]) | other results
1 | > 50 µM | > 50 µM | 2.6 ×10⁻⁶ cm/s | > 30 µM | > 50 µM | > 10 µM |  |  |  |  |  |  |  |  |  |  | CCNC1=N[C@@H]2C[C@H](O)[C@@H](CO)O[C@@H]2S1 | > 30 µM | > 30 µM | > 30 µM |  | 
2 |  |  | 5.7 ×10⁻⁶ cm/s |  |  | 1.3 µM | 0.77 | 1.33 | 2.54 µM·kg·h/mg | 0.00036 µM | 27.1 mL/min/kg | 0.133 nmol/g | 0.00171 µM | 1.72 L/kg | 1.48 h | 0.83 | CNC1=N[C@@H]2[C@@H](O)[C@H](O)[C@@H](C(F)F)O[C@@H]2S1 |  |  |  | 2 | bioavailability [17]: 93.8%

Second part, the compound before the results:

Row | SMILES | IC50 (Cytochrome P450 2C9) | IC50 (Cytochrome P450 2D6) | Papp (MDR1) | EC50 [1] | IC50 (Cytochrome P450 3A4) | Ki [4] | fraction unbound at 2.5 µM [6] | Kp at 8 h [7] | AUC/dose [8] | Ki (Protein O-GlcNAcase [9]) | clearance [10] | Drug uptake [11] | EC50 (Protein O-GlcNAcase [12]) | Vd [13] | half-life [15] | fraction unbound at 2.5 µM [16] | IC50 [2] | IC50 [3] | IC50 [5] | fold change (FC) (Rattus norvegicus [14]) | other results
3 | CCNC1=N[C@@H]2[C@@H](F)[C@H](O)[C@@H](CO)O[C@@H]2S1 | > 50 µM | > 50 µM | 2.7 ×10⁻⁶ cm/s | > 30 µM | > 50 µM | > 10 µM |  |  |  | 0.029 µM | 31.9 mL/min/kg |  | 0.443 µM |  | 2.4 h |  | > 30 µM | > 30 µM | > 30 µM |  | bioavailability [18]: 104%; Vd [19]: 2 L/kg; AUC/dose [20]: 2.16 µM·kg·h/mg
4 | CN(C)C1=N[C@@H]2[C@@H](O)[C@H](O)[C@@H](CF)O[C@@H]2S1 |  |  | 6.8 ×10⁻⁶ cm/s |  |  | 1.6 µM | > 0.99 | 0.9 | 0.954 µM·kg·h/mg | 0.009 µM | 43.7 mL/min/kg | 0.222 nmol/g | 0.177 µM | 10.5 L/kg |  | > 0.99 |  |  |  | 2.33 | Kp at 24 h [21]: 1.53; fold change (FC) (Rattus norvegicus [22]): 1.77; bioavailability [17]: 75.3%; Drug uptake [23]: 0.038 nmol/g
5 | CCN(C)C1=N[C@@H]2[C@@H](O)[C@H](O)[C@@H](CO)O[C@@H]2S1 | > 50 µM | > 50 µM | 1.1 ×10⁻⁶ cm/s | > 30 µM | > 50 µM | 3.6 µM |  |  |  | 0.0055 µM | 66.3 mL/min/kg |  | 0.0367 µM |  | 1.89 h |  | > 30 µM | > 30 µM | > 30 µM |  | bioavailability [18]: 62%; Vd [19]: 5.39 L/kg; AUC/dose [20]: 0.598 µM·kg·h/mg
